Like-named read-outs stand apart in the source and are kept apart here.
Tests used:
Sorghum = experiment: Ex46 PRE sorghum injury 7, 14, 21, 28 DAT; settings: rate in the words
Description: Treatments were applied to sorghum at the time of planting using Pennington soil. Each treatment was replicated four times. Soil was watered before and after application for herbicide activation. Plants were watered and fertilized routinely. […] Visual percent crop injury was recorded at 7, 14, 21, and 28 days after treatment using a scale of 0 (no injury) to 100 (complete plant death).

Italian ryegrass = experiment: Ex36 POST 2,4-DC + metsulfuron-methyl, % control 28 DAT, Colby; format: in vivo, Lolium perenne L. ssp. multiflorum
Source text: Crops screened were wheat and barley.

Barley [1] = experiment: Ex40 POST 2,4-DC + metsulfuron-methyl, crop injury 7 DAT; format: in vivo; settings: POST
Description: (§1) Treatments were applied to barley and wheat crops.
(§2) Non-ionic surfactant (NIS) was added to all treatments at 0.5% v/v. All plant species were direct seeded into 3″ plastic pots using metro-mix as growth media. At treatment common lambsquarters was 1.75″, common chickweed was 2″, wild mustard was 2.25″, wild oat was 5.5″, wild buckwheat was 2-5″, Italian ryegrass was 2-3″, wheat was 5.5″ and barley was 4.5″ in height. Plants were watered well before application and not watered 24 h after application. Plants were watered and fertilized routinely after treatment application. Each treatment was replicated four times. Treated flats were placed in randomized block design in the greenhouse.

wheat [2] = experiment: as above; format: in vivo; settings: POST
Description: as §1, §2

weeds; barley and wheat = experiment: Ex40 POST greenhouse; format: in vivo; settings: rate in the words
Description: as §1, §2

Barley [3] = format: in vivo; settings: 14 DAT, POST
Description: (§3) Treatments were applied to wheat and barley crops.
(§4) Nonionic surfactant was added at 0.5% v/v in all treatments. Treatments were applied to wheat (5.5″), barley (5″), wild oat (5.5″), common chickweed (2″), wild buckwheat (3″), and common lambsquarters (2″). All plant species were direct seeded into 3″ plastic pots using metro-mix as growth media and pots were watered well before application and watered 24 h after application. Plants were watered and fertilized routinely after treatment application. Each treatment was replicated four times.

wheat [4] = format: in vivo; settings: 14 DAT, POST
Description: as §3, §4

weeds; Wheat and Barley = experiment: Ex41 POST greenhouse; format: in vivo; settings: rate in the words
Description: as §3, §4

barnyardgrass (BG) = experiment: Ex5 PRE greenhouse, % control; format: in vivo, Echinochloa crus-galli; settings: 28 DAT, g ai/ha by row: r10-26 2,4-DC 50/100/200 (3 rows each) + mesotrione 25/50/100 (cycling)
Description: (§5) Test compositions containing 2,4-DC Example 1C and mesotrione (Callisto® Herbicide, 40% active ingredient, Syngenta) and mixtures of 2-(2,4-dichlorophenyl)methyl-4,4-dimethyl-3-isoxazolidinone and mesotrione, were diluted with water to provide the appropriate test rate concentration.
(§6) The test weeds were barnyardgrass (BG) (Echinochloa crus-galli), jimsonweed (PA) (Datura stramonium), velvetleaf (VL) (Abutilon theophrasti), common cockelbur (CC) (Xanthium strumarium) and hairy beggarticks (HB) (Bidens pilosa). Crops included in the evaluation were field corn and sorghum.
(§7) For pre-emergence testing, four disposable fiber flats (6″ by 10″) for each rate of application of each herbicide solution were filled with top soil, to which seeds of each species were planted in furrows made by a template pressed on the top of the soil. The furrows with seeds were covered with soil and were watered well before application of the test compounds. Flats designated for treatment were placed in a spray chamber having a static platform and a movable sprayer and height of the spray nozzle was 10.5 inches above the soil level. Once the sprayer was calibrated using water for spray volume of 30 gallons per acre, flats were sprayed with sprayer at a speed to receive a coverage equivalent of 30 gallons per acre.
(§8) The application rates are those shown in Table 4 below for the individual herbicidal solutions and the herbicide compositions of the present invention. The pre-emergence flats were immediately placed in the greenhouse and watered lightly after treatment. Thereafter they were regularly watered and fertilized for the duration of the test. The control of weeds and injury to crops was evaluated in each experimental test at 28 days after treatment (DAT). […] Percent control was determined by a method similar to the 0 to 100 rating system disclosed in “Research Methods in Weed Science,” 2nd ed., B. Truelove, Ed.; Southern Weed Science Society; Auburn University, Auburn, Ala., 1977.

velvetleaf (VL) = experiment: Ex5 PRE greenhouse, % control; format: in vivo, Abutilon theophrasti; settings: 28 DAT, g ai/ha by row: r10-26 2,4-DC 50/100/200 (3 rows each) + mesotrione 25/50/100 (cycling)
Description: as §5, §6, §7, §8

jimsonweed = experiment: Ex5 PRE greenhouse, % control; format: in vivo, Datura stramonium; settings: 28 DAT, g ai/ha by row: r10-26 2,4-DC 50/100/200 (3 rows each) + mesotrione 25/50/100 (cycling)
Description: as §5, §6, §7, §8

[5] = test system: weeds; Sugarcane (var. CTC 20); experiment: Ex17 PRE greenhouse; format: in vivo; settings: weed and rate in the words
Description: In this example a study was conducted to determine weed efficacy and sugarcane injury when 2,4 DC or isoxaflutole are applied either alone or tank-mix as preemergence against the weeds: Ivyleaf morningglory (Ipomoea hederacea, IPOHE), hairy beggartickss (Bidens pilosa, BIDPI), yellow nutsedge (Cyperus esculentus, CYPES), large crabgrass (Digitaria sanguinalis, DIGSA), and redroot pigweed (Amaranthus retroflexus, AMARE). The crop tested in this study was Sugarcane (var. CTC 20).
To determine weed efficacy and sugarcane selectivity, 2,4 DC (SC 36%) and isoxaflutole (Balance Flexx®, 20%) were applied PRE either alone or as tank-mix partners at rates mentioned below. 2,4 DC was applied at 500, 750, and 1000 g ai/ha while isoxaflutole was applied at 80, 100, and 120 g ai/ha. […] Treatments were applied PRE to sugarcane (var. CTC 20), ivyleaf morningglory, hairy beggarticks, yellow nutsedge, large crabgrass, and redroot pigweed. Weed species were planted in fiber flats (6″×10″) containing Pennington soil. Soil was watered before application and watered lightly after application. Flats were watered and fertilized routinely after treatment application.

weeds; Sugarcane (CTC20) = experiment: Ex23 PRE greenhouse; settings: 28 DAT, weed and rate in the words
Description: (Ipomoea spp). The tested crop in this study was Sugarcane (CTC20).
Sugarcane was direct seeded into 6″ plastic pots using 3-4″ sugarcane setts, oriented bud up, with bud leaf shield removed. 2,4 DC and sulfentrazone were applied alone or combined as tank-mix at each rate mentioned below. […] Treatments were replicated 3 times. […] Thereafter flats were watered and fertilized routinely. […] Visual percent sugarcane injury was recorded at 21 and 28 DAT, using a scale of 0 (no injury, observed as bleaching, stunting or necrosis) to 100 (complete plant death).

[6] = test system: weeds; sweet corn, yellow corn, and sorghum; experiment: Ex31 PRE greenhouse; format: in vivo; settings: weed and rate in the words
Source text: Flats were watered and fertilized routinely after treatment application.

[7] = test system: sweet corn, yellow corn, and sorghum; settings: PRE; crop and rate in the words
Source text: Treatments were also applied ot sweet corn, yellow corn, and sorghum.
Treatments were applied before the emergence of Jimsonweed, velvetleaf, hairy beggarticks, common cocklebur, barnyardgrass, sweet corn, yellow corn, and sorghum. Plant species were planted in fiber flats (6″×10″) containing Pennington soil and flats were watered well before application and watered lightly after application. Flats were watered and fertilized routinely after treatment application.

Littleseed canarygrass = experiment: Ex34 PRE 2,4-DC + napropamide, % control, Colby; format: in vivo, Phalaris minor; settings: 28 DAT
Source text: (§9) Thereafter flats were watered and fertilized routinely.

Common lambsquarters = experiment: Ex34 PRE 2,4-DC + napropamide, % control, Colby; format: in vivo, Chenopodium album; settings: 28 DAT
Source text: as §9

Blackgrass = experiment: Ex34 PRE 2,4-DC + napropamide, % control, Colby; format: in vivo, Alopecurus myosuroides; settings: 28 DAT
Source text: as §9

Wild buckwheat = experiment: Ex34 PRE 2,4-DC + napropamide, % control, Colby; format: in vivo, Polygonum convolvulus; settings: 28 DAT
Source text: as §9

Annual bluegrass = experiment: Ex34 PRE 2,4-DC + napropamide, % control, Colby; format: in vivo, Poa annua; settings: 28 DAT
Source text: as §9

weeds = experiment: Ex18 PRE greenhouse; format: in vivo; settings: weed and rate in the words
Source text: Additional treatments included application of metazachlor (Butisan®, 43.1%) at 750 g ai/ha, napropamide (Devrinol DF®, 50%) at 1260 g ai/ha, and dimethachlor (Teridox®, 48%) at 1000 g ai/ha. […] Treatments were applied just after the seeding of annual bluegrass, cheat, wild oat, quackgrass, field violet, blackgrass, littleseed canarygrass, silky windgrass, yellow foxtail, and goosegrass. […] Flats were watered and fertilized routinely after treatment application. Each treatment was replicated three times.

weeds; canola = experiment: Ex34 PRE greenhouse; format: in vivo; settings: rate in the words
Source text: as §9

[8] = thifensulfuron-methyl 50 g ai/ha
[9] = thifensulfuron-methyl 75 g ai/ha
[10] = thifensulfuron-methyl 100 g ai/ha
[11] = r28-30 2,4-DC 50/100/200, r31-33 mesotrione 25/50/100, 25 g ai/ha
[12] = r28-30 2,4-DC 50/100/200, r31-33 mesotrione 25/50/100, 50 g ai/ha
[13] = r28-30 2,4-DC 50/100/200, r31-33 mesotrione 25/50/100, 100 g ai/ha

## CC1(C)CON(Cc2cc(Cl)ccc2Cl)C1=O [2,5-DC, 2-(2,5-dichlorophenyl)methyl-4,4-dimethyl-3-isoxazolidinone]
Sorghum
  sorghum safety in words: safe on sorghum at rates ranging from 31 to 125 g ai/ha irrespective of rating timings

## COC(=O)c1ccccc1S(=O)(=O)NC(=O)Nc1nc(C)nc(OC)n1 [Metsulfuron-methyl, metsulfuron-methyl, reference compound]
Italian ryegrass; metsulfuron-methyl alone 6 g ai/ha
  Y: 6%
Italian ryegrass; metsulfuron-methyl alone 9 g ai/ha
  Y: 18%
Italian ryegrass; metsulfuron-methyl alone 12 g ai/ha
  Y: 16%
Barley [1]; metsulfuron-methyl 2 g ai/ha
  Y (% crop injury, metsulfuron-methyl alone): 5%
Barley [1]; metsulfuron-methyl 3 g ai/ha
  Y (% crop injury, metsulfuron-methyl alone): 7%
Barley [1]; metsulfuron-methyl 4 g ai/ha
  Y (% crop injury, metsulfuron-methyl alone): 9%
Wheat [2]; metsulfuron-methyl 2 g ai/ha
  Y (% crop injury, metsulfuron-methyl alone): 1%
Wheat [2]; metsulfuron-methyl 3 g ai/ha
  Y (% crop injury, metsulfuron-methyl alone): 0%
Wheat [2]; metsulfuron-methyl 4 g ai/ha
  Y (% crop injury, metsulfuron-methyl alone): 2%
weeds; barley and wheat
  weed control / crop safety in words: alone controlled wild buckwheat, common chickweed, wild mustard, and common lambsquarters at all rates and was safe on both crops at all rates

## COC(=O)c1sccc1S(=O)(=O)NC(=O)Nc1nc(C)nc(OC)n1 [Thifensulfuron-methyl, thifensulfuron-methyl, reference compound]
Barley [3]; [8]
  % crop injury for Thifensulfuron-M alone: 2%
Barley [3]; [9]
  % crop injury for Thifensulfuron-M alone: 2%
Barley [3]; [10]
  % crop injury for Thifensulfuron-M alone: 2%
Wheat [4]; [8]
  % crop injury for Thifensulfuron-M alone: 0%
Wheat [4]; [9]
  % crop injury for Thifensulfuron-M alone: 0%
Wheat [4]; [10]
  % crop injury for Thifensulfuron-M alone: 1%
weeds; Wheat and Barley
  weed control / crop safety in words: alone controlled all weeds except wild oat, and was safe on both crops

## CS(=O)(=O)c1ccc(C(=O)C2C(=O)CCCC2=O)c([N+](=O)[O-])c1 [mesotrione]
Barnyardgrass (BG); [11]
  % Control BG: 48%
Barnyardgrass (BG); [12]
  % Control BG: 61%
Barnyardgrass (BG); [13]
  % Control BG: 73%
Velvetleaf (VL); [11]
  % Control VL: 73%
Velvetleaf (VL); [12]
  % Control VL: 87%
Velvetleaf (VL); [13]
  % Control VL: 100%
jimsonweed; [11]
  % Control JW: 68%
jimsonweed; [12]
  % Control JW: 90%
jimsonweed; [13]
  % Control JW: 93%
[5]
  weed control in words: at 105 g controlled all weeds except ivyleaf morningglory
weeds; Sugarcane (CTC20)
  weed control in words: at 105 g controlled all weeds except morningglory
[6]
  weed control in words: alone gave control of velvetleaf and Jimsonweed at medium or highest rate while it controlled cocklebur and hairy beggarstick at the highest rate only
[7]
  crop safety in words: alone was safe on sweet corn and yellow corn at all three rates; safe on sorghum at 25 and 50 g

## CCN(CC)C(=O)C(C)Oc1cccc2ccccc12 (stereo not drawn) [napropamide, reference compound]
Littleseed canarygrass; Napropamide alone 315 g ai/ha
  Y: 50%
Littleseed canarygrass; Napropamide alone 630 g ai/ha
  Y: 87%
Littleseed canarygrass; Napropamide alone 1260 g ai/ha
  Y: 100%
Common lambsquarters; Napropamide alone 315 g ai/ha
  Y: 50%
Common lambsquarters; Napropamide alone 630 g ai/ha
  Y: 73%
Common lambsquarters; Napropamide alone 1260 g ai/ha
  Y: 91%
Blackgrass; Napropamide alone 315 g ai/ha
  Y: 5%
Blackgrass; Napropamide alone 630 g ai/ha
  Y: 7%
Blackgrass; Napropamide alone 1260 g ai/ha
  Y: 15%
Wild buckwheat; Napropamide alone 315 g ai/ha
  Y: 23%
Wild buckwheat; Napropamide alone 630 g ai/ha
  Y: 23%
Wild buckwheat; Napropamide alone 1260 g ai/ha
  Y: 38%
Annual bluegrass; Napropamide alone 315 g ai/ha
  Y: 1%
Annual bluegrass; Napropamide alone 630 g ai/ha
  Y: 77%
Annual bluegrass; Napropamide alone 1260 g ai/ha
  Y: 92%
weeds
  weed control in words: controlled all weeds except blackgrass
weeds; canola
  weed control / crop safety in words: alone at 630 g controlled littleseed canarygrass, at 1260 g controlled common lambsquarters, annual bluegrass and Italian ryegrass and was safe on canola at all rates

From patent US12616203B2, “Use of 3-isoxazolidinones compounds as selective herbicides” (FMC Corporation, priority 2014, dated 2026)
